Data reported in patent publication US10947317B2, “NaPi2b-targeted antibody-drug conjugates and methods of use thereof” (Mersana Therapeutics, Inc., priority 2016, dated 2021).

Test system: TOV-21G cells
Assay: Cell surface binding by flow cytometry, TOV-21G
Design: species or system human
Conditions: on ice 3 hours
Description: The cell surface binding of the Example 1C, XMT 1535-(EG2-MI-(10 kDa PHF-BA-(AF-HPA-Ala))) and anti-NaPi2B antibody XMT 1535, to antigen expressing cells was evaluated by flow cytometry. TOV-21G or OVCAR3 cells were grown overnight to approximately 90% confluent cultures in media, then were released from the plate surface by treatment with Trypsin-EDTA (Gibco-Thermo Fisher Scientific, USA). The detached cells were washed once with ice cold media containing 6% goat serum and resuspended in the same media. 50,000 cells were aliquoted per well of a V-bottom, 96-well plate and incubated with a range of test articles concentrations (0.23-500 nM) in 100 μl Media (1:1 mixture MCDB105 (1.5 g/L sodium bicarbonate) and Medium 199 (2.2 g/L sodium bicarbonate plus 15% FBS)) with 6% goat serum on ice for 3 hours. […] The amount of fluorescence bound per cell was determined by running 5000 cells for each treatment on a MACSQuant flow cytometer (Miltenyi Biotec, Bergisch Gladbach, Germany). The median fluorescence value for each treatment was graphed, and the binding constant, KD was calculated for each test article with GraphPad Prism software by non-linear regression using the one site specific binding model.

XMT-1535-(EG2-MI-(10 kDa PHF-BA-(AF-HPA-Ala))) [Example 1C]
Kd: 3.97 nM
